# What was measured:
# [1] = target: T1, human orexin-2 receptor (Homo sapiens (Human), UniProt O43614); assay: radioligand binding assay, orexin-2 receptor; settings: membranes prepared from CHO cells expressing the OX2 receptor; read-out: hOX2R BIND hKi
# [2] = target: T1, human orexin-2 receptor; assay: FLIPR Ca2+ Flux Assay, orexin-2 receptor; assay type: cell-based; settings: CHO cells expressing the human orexin-2 receptor; agonist 70 pM Ala-6,12 human orexin-A; read-out: hOX2R FLIPR IC50
# Summary of the method: (§1)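 Using CHO lines carrying either rat orexin-1 or human orexin-2 receptor, compounds were tested as antagonists of 70 pM Ala-6,12 orexin-A-evoked calcium rises. Fluo-4 signal was read on a FLIPR over 5 min after a 5 min compound preincubation.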
# [3] = target: rat orexin-1 receptor (Rattus norvegicus (Rat), UniProt P56718); assay: FLIPR Ca2+ Flux Assay, orexin-1 receptor; assay type: cell-based; settings: CHO cells expressing the rat orexin-1 receptor; agonist 70 pM Ala-6,12 human orexin-A; read-out: hOX1R FLIPR IC50
# Chain of rat orexin-1 receptor (P56718 whole entry): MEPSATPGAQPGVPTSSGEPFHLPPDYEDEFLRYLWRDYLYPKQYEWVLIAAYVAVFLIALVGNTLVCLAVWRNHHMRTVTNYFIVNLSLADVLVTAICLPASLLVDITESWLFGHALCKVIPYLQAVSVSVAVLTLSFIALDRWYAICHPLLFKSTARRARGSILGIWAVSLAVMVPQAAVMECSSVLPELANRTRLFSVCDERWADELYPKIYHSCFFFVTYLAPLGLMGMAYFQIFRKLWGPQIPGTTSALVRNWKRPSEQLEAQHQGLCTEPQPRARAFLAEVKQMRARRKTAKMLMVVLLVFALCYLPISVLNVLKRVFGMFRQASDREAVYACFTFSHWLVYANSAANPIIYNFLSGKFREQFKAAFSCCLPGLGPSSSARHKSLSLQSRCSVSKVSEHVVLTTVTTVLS
# Summary of the method: as §1
# T1 sequence (O43614 whole entry): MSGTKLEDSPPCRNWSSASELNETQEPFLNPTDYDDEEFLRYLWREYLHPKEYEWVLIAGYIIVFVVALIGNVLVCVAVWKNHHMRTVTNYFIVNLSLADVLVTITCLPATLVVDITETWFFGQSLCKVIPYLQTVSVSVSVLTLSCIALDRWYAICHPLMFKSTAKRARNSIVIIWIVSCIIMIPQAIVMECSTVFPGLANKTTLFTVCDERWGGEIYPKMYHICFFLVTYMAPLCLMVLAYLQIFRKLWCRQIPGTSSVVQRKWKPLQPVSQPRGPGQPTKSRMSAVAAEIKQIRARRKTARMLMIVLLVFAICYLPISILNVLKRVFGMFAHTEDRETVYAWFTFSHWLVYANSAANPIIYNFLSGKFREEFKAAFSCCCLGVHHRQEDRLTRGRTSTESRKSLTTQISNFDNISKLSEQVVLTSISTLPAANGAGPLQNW
Structure (SMILES),Ki [1],IC50 [2],IC50 [3]
"COc1ccc(C(=O)N2C[C@H](Oc3nccc(C#N)c3C)CC[C@H]2C)c(-n2nccn2)n1 [Example 2, 2-{[(3R,6R)-1-{[6-Methoxy-2-(2H-1,2,3-triazol-2-yl)pyridin-3-yl]carbonyl}-6-methylpiperidin-3-yl]oxy}-3-methylpyridine-4-carbonitrile]",0.003 µM,0.021 µM,5.93 µM
"Cc1ccc(-n2nccn2)c(C(=O)N2C[C@H](Oc3nccc(C#N)c3C)CC[C@H]2C)c1 [Example 6, 3-methyl-2-{[(3R,6R)-6-methyl-1-{[5-methyl-2-(2H-1,2,3-triazol-2-yl)phenyl]carbonyl}piperidin-3-yl]oxy}pyridine-4-carbonitrile]",0.0006 µM,0.007 µM,0.292 µM
"Cc1c(C#N)ccnc1O[C@@H]1CC[C@@H](C)N(C(=O)c2c(F)cccc2-c2cscn2)C1 [Example 22, 2-{[(3R,6R)-1-{[2-fluoro-6-(1,3-thiazol-4-yl)phenyl]carbonyl}-6-methylpiperidin-3-yl]oxy}-3-methylpyridine-4-carbonitrile]",0.0003 µM,0.02 µM,0.991 µM
"Cc1c(C#N)ccnc1O[C@@H]1CC[C@@H](C)N(C(=O)c2cn(C)nc2-c2nccs2)C1 [Example 46, 3-methyl-2-{[(3R,6R)-6-methyl-1-{[1-methyl-3-(1,3-thiazol-2-yl)-1H-pyrazol-4-yl]carbonyl}piperidin-3-yl]oxy}pyridine-4-carbonitrile]",0.0142 µM,0.111 µM,> 10 µM
"Cc1c(C#N)ccnc1O[C@@H]1CC[C@@H](C)N(C(=O)c2ccc(F)cc2-n2nccn2)C1 [Example 9, 2-{[(3R,6R)-1-{[4-fluoro-2-(2H-1,2,3-triazol-2-yl)phenyl]carbonyl}-6-methylpiperidin-3-yl]oxy}-3-methylpyridine-4-carbonitrile]",0.0005 µM,0.012 µM,1.08 µM
"COc1c(C#N)ccnc1O[C@@H]1CC[C@@H](C)N(C(=O)c2cc(F)ccc2-n2nccn2)C1 [Example 99, 2-{[(3R,6R)-1-{[5-fluoro-2-(2H-1,2,3-triazol-2-yl)phenyl]carbonyl}-6-methylpiperidin-3-yl]oxy}-3-methoxypyridine-4-carbonitrile]",0.0004 µM,0.015 µM,2.43 µM
"Cc1c(C#N)ccnc1O[C@@H]1CC[C@@H](C)N(C(=O)c2ncccc2-c2cscn2)C1 [Example 24, 3-methyl-2-{[(3R,6R)-6-methyl-1-{[3-(1,3-thiazol-4-yl)pyridin-2-yl]carbonyl}piperidin-3-yl]oxy}pyridine-4-carbonitrile]",0.0038 µM,0.024 µM,4.9 µM
"Cc1c(C#N)ccnc1O[C@@H]1CC[C@@H](C)N(C(=O)c2cnccc2-n2nccn2)C1 [Example 10, 3-methyl-2-{[(3R,6R)-6-methyl-1-{[4-(2H-1,2,3-triazol-2-yl)pyridin-3-yl]carbonyl}piperidin-3-yl]oxy}pyridine-4-carbonitrile]",0.0081 µM,0.055 µM,7.07 µM
"COc1ccc(C(=O)N2C[C@H](Oc3nccc(C#N)c3C)CC[C@H]2C)c(SC)n1 [Example 84, 2-{[(3R,6R)-1-{[6-Methoxy-2-(methylsulfanyl)pyridin-3-yl]carbonyl}-6-methylpiperidin-3-yl]oxy}-3-methylpyridine-4-carbonitrile]",0.002 µM,0.022 µM,> 10 µM
"Cc1c(C#N)ccnc1O[C@@H]1CC[C@@H](C)N(C(=O)c2ccc(OCF)cc2-n2nccn2)C1 [Example 64, 2-{[(3R,6R)-1-{[4-(fluoromethoxy)-2-(2H-1,2,3-triazol-2-yl)phenyl]carbonyl}-6-methylpiperidin-3-yl]oxy}-3-methylpyridine-4-carbonitrile]",0.0033 µM,0.035 µM,4.49 µM
"Cc1cccc(-n2nccn2)c1C(=O)N1C[C@H](Oc2nccc(C#N)c2C)CC[C@H]1C [Example 15, 3-methyl-2-{[(3R,6R)-6-methyl-1-{[2-methyl-6-(2H-1,2,3-triazol-2-yl)phenyl]carbonyl}piperidin-3-yl]oxy}pyridine-4-carbonitrile]",0.0002 µM,0.012 µM,0.693 µM
"Cc1c(C#N)ccnc1O[C@@H]1CC[C@@H](C)N(C(=O)c2ccccc2C2CC2)C1 [Example 16, 2-({(3R,6R)-1-[(2-cyclopropylphenyl)carbonyl]-6-methylpiperidin-3-yl}oxy)-3-methylpyridine-4-carbonitrile]",0.0007 µM,0.009 µM,1.74 µM
"Cc1c(C#N)ccnc1O[C@@H]1CC[C@@H](C)N(C(=O)c2ccc(OCF)nc2-n2nccn2)C1 [Example 88, 2-{[(3R,6R)-1-{[6-(Fluoromethoxy)-2-(2H-1,2,3-triazol-2-yl)pyridin-3-yl]carbonyl}-6-methylpiperidin-3-yl]oxy}-3-methylpyridine-4-carbonitrile]",0.0092 µM,0.058 µM,> 10 µM
"COc1c(C#N)ccnc1O[C@@H]1CC[C@@H](C)N(C(=O)c2cc(C)ccc2-n2nccn2)C1 [Example 103, 3-methoxy-2-{[(3R,6R)-6-methyl-1-{[5-methyl-2-(2H-1,2,3-triazol-2-yl)phenyl]carbonyl}piperidin-3-yl]oxy}pyridine-4-carbonitrile]",0.0004 µM,0.024 µM,1.01 µM
"Cc1noc(-c2ccccc2C(=O)N2C[C@H](Oc3nccc(C#N)c3C)CC[C@H]2C)n1 [Example 58, 3-methyl-2-{[(3R,6R)-6-methyl-1-{[2-(3-methyl-1,2,4-oxadiazol-5-yl)phenyl]carbonyl}piperidin-3-yl]oxy}pyridine-4-carbonitrile]",0.0005 µM,0.012 µM,0.733 µM
"Cc1c(C#N)ccnc1O[C@@H]1CC[C@@H](C)N(C(=O)c2ccccc2-n2ncnn2)C1 [Example 70, 3-methyl-2-{[(3R,6R)-6-methyl-1-{[2-(2H-tetrazol-2-yl)phenyl]carbonyl}piperidin-3-yl]oxy}pyridine-4-carbonitrile]",0.0016 µM,0.0077 µM,4.59 µM
"CCc1ccccc1C(=O)N1C[C@H](Oc2nccc(C#N)c2C)CC[C@H]1C [Example 59, 2-({(3R,6R)-1-[(2-ethylphenyl)carbonyl]-6-methylpiperidin-3-yl}oxy)-3-methylpyridine-4-carbonitrile]",0.0037 µM,0.031 µM,> 10 µM
"COc1ccc(C(=O)N2C[C@H](Oc3nccc(C#N)c3C)CC[C@H]2C)c(N(C)C)n1 [Example 87, 2-{[(3R,6R)-1-{[2-(Dimethylamino)-6-methoxypyridin-3-yl]carbonyl}-6-methylpiperidin-3-yl]oxy}-3-methylpyridine-4-carbonitrile]",0.009 µM,0.069 µM,> 10 µM
"Cc1c(C#N)ccnc1O[C@@H]1CC[C@@H](C)N(C(=O)c2cc(F)cnc2-c2nccs2)C1 [Example 35, 2-{[(3R,6R)-1-{[5-fluoro-2-(1,3-thiazol-2-yl)pyridin-3-yl]carbonyl}-6-methylpiperidin-3-yl]oxy}-3-methylpyridine-4-carbonitrile]",0.0003 µM,0.013 µM,0.453 µM
"COc1ccc(C(=O)N2C[C@H](Oc3nccc(C#N)c3C)CC[C@H]2C)c(-c2ccn(C)n2)n1 [Example 81, 2-{[(3R,6R)-1-{[6-methoxy-2-(1-methyl-1H-pyrazol-3-yl)pyridin-3-yl]carbonyl}-6-methylpiperidin-3-yl]oxy}-3-methylpyridine-4-carbonitrile]",0.0084 µM,0.0646 µM,10 µM
"C=Cc1ccc(C(=O)N2C[C@H](Oc3nccc(C#N)c3C)CC[C@H]2C)c(-n2nccn2)n1 [Example 90, 2-{[(3R,6R)-1-{[6-ethenyl-2-(2H-1,2,3-triazol-2-yl)pyridin-3-yl]carbonyl}-6-methylpiperidin-3-yl]oxy}-3-methylpyridine-4-carbonitrile]",0.0129 µM,0.088 µM,> 10 µM
"Cc1c(C#N)ccnc1O[C@@H]1CC[C@@H](C)N(C(=O)c2ccccc2-c2cnn(C)c2)C1 [Example 36, 3-methyl-2-{[(3R,6R)-6-methyl-1-{[2-(1-methyl-1H-pyrazol-4-yl)phenyl]carbonyl}piperidin-3-yl]oxy}pyridine-4-carbonitrile]",0.0015 µM,0.02 µM,2.38 µM
"Cc1nsc(-c2ccccc2)c1C(=O)N1C[C@H](Oc2nccc(C#N)c2C)CC[C@H]1C [Example 47, 3-methyl-2-({(3R,6R)-6-methyl-1-[(3-methyl-5-phenylisothiazol-4-yl)carbonyl]piperidin-3-yl}oxy)pyridine-4-carbonitrile]",0.0049 µM,0.082 µM,2.36 µM
"COc1ccc(-c2ccccc2C(=O)N2C[C@H](Oc3nccc(C#N)c3C)CC[C@H]2C)cn1 [Example 49, 2-{[(3R,6R)-1-{[2-(6-methoxypyridin-3-yl)phenyl]carbonyl}-6-methylpiperidin-3-yl]oxy}-3-methylpyridine-4-carbonitrile]",0.0005 µM,0.015 µM,0.469 µM
"Cc1ccc(C(=O)N2C[C@H](Oc3nccc(C#N)c3C)CC[C@H]2C)c(-c2ncccn2)c1 [Example 76, 3-methyl-2-({(3R,6R)-6-methyl-1-[(4-methyl-2-pyrimidin-2-ylphenyl)carbonyl]piperidin-3-yl}oxy)pyridine-4-carbonitrile]",0.0021 µM,0.037 µM,1.27 µM
